These results are taken from patent US8084046B2 (priority 2001, dated 2011).

Values joined by “and” are separate entries in the source; they are usually repeats but may differ in a detail not shown here. Equal values may be shown once. Read-outs that look alike come from different tables or passages of the source.

What all share (assay type): cell-based
In assay [1] the test system is S. aureus (MN8). Particulars: 24 h.
The subject of assay [2] is S. aureus (MN8).
Assay [3] relates to S. aureus MN8.
Assay [4] deals with S. aureus MN8. More on the design: ngTSST-1 per CFU: scale not given here. Particulars: for % Reduction / ngTSST-1 per CFU: terpineol 0%.

With `CC1(O)CCC(C(C)(C)O)CC1` (stereo not shown) [p-menthane-1,8-diol], in the assay with S. aureus (MN8) [1], the “ng TSST-1 per OD Unit” value was 792.
Same read-out and setting: the result for `CC(C)=CCC/C(C)=C/CO` [Geraniol] reads 26.
As to `CC1CCC(C(C)C)C(O)C1` (stereo not shown) [Menthol], in the assay on S. aureus (MN8) [2], the “effect on the growth of S. aureus cells” value was “minimal, if any, effect on the growth of S. aureus cells”. In addition, in the assay with S. aureus (MN8) [1], the “ng TSST-1 per OD Unit” value stood at 33.
In the case of myreth-3-myristate [Cetiol], the “% CFU/mL × 10^6” value in the assay on S. aureus MN8 [3] was 5.9 and 5.0 and 4.2. In addition, in the assay with S. aureus MN8 [4], the “ng TSST-1 per mL” value was 1147 and 989 and 1556. Moreover, the “% Reduction” value is 0% in the assay with S. aureus MN8 [4] (Cetiol 2.5 mM), 39% with S. aureus MN8 [4] (Cetiol 5.0 mM) and 37% in the assay on S. aureus MN8 [4] (Cetiol 10.0 mM). In addition, the “ngTSST-1 per CFU” value with S. aureus MN8 [4] (Cetiol 2.5 mM) stood at 371 ng per CFU; with S. aureus MN8 [4] (Cetiol 5.0 mM) it was 196 ng per CFU; in the assay with S. aureus MN8 [4] (Cetiol 10.0 mM), 200 ng per CFU.
In the case of `C=CC(C)(O)CCC=C(C)C` (stereo not shown) [Linalool], in the assay on S. aureus (MN8) [1], the “ng TSST-1 per OD Unit” value is reported as 421.
